Molecular target: peptide deformylase (EcPDF) (Escherichia coli, UniProt P0A6K3)
Test: coupled colorimetric assay
Type: biochemical

peptide deformylase (EcPDF), sequence (P0A6K3 2-169): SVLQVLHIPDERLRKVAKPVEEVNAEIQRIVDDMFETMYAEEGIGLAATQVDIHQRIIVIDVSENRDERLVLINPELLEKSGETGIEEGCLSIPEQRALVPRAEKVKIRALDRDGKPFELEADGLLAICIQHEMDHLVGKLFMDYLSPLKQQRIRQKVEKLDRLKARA

Row | Compound | % inhibition at 4 μM | inhibition at 4 µM (read-out: % inhibition at 4 μM) [%]
1 | Fumimycin Weinreb amide [17h] | ~ 16 | 
2 | C/C=C/c1c(O)c(O)cc2c1[C@@](C)(NC(=O)/C=C/C(=O)O)C(=O)O2 (racemic) [compound 1, (±)-fumimycin] | ~ 20 | 
3 | CCCCC[C@H](CC(=O)NO)C(=O)N[C@H](C(=O)N1CCC[C@H]1CO)C(C)C [compound 2, actinonin] |  | ~95
4 | Dimethoxy-fumimycin methyl ester [17b] | ~ 20 | 
5 | Dimethoxy-fumimycin hydroxamic acid [17f] | ~ 20 | 
